Experimental data taken from patent publication US4728725A, “Retro-inverted peptides analogues of Bradykinin Potentiator BPP5a” (Enichem, S.p.A., priority 1984, dated 1988).
Where no end group is shown, it is not given here. [ ]: non-standard residue; d: D form. pGlu = O=C1CC[C@@H](C(=O)O)N1

Legend:
[1] = target: T1, angiotensin conversion enzyme (Oryctolagus cuniculus, UniProt P12822); experiment: Inhibition of angiotensin conversion enzyme in vitro (method of Cushman and Cheung); format: biochemical; details: enzyme isolated from rabbit lungs; read-out: I50
T1 construct: with the enzyme isolated from rabbit lungs; from tissue; host or cells: rabbit lungs
T1 sequence (P12822 34-1310): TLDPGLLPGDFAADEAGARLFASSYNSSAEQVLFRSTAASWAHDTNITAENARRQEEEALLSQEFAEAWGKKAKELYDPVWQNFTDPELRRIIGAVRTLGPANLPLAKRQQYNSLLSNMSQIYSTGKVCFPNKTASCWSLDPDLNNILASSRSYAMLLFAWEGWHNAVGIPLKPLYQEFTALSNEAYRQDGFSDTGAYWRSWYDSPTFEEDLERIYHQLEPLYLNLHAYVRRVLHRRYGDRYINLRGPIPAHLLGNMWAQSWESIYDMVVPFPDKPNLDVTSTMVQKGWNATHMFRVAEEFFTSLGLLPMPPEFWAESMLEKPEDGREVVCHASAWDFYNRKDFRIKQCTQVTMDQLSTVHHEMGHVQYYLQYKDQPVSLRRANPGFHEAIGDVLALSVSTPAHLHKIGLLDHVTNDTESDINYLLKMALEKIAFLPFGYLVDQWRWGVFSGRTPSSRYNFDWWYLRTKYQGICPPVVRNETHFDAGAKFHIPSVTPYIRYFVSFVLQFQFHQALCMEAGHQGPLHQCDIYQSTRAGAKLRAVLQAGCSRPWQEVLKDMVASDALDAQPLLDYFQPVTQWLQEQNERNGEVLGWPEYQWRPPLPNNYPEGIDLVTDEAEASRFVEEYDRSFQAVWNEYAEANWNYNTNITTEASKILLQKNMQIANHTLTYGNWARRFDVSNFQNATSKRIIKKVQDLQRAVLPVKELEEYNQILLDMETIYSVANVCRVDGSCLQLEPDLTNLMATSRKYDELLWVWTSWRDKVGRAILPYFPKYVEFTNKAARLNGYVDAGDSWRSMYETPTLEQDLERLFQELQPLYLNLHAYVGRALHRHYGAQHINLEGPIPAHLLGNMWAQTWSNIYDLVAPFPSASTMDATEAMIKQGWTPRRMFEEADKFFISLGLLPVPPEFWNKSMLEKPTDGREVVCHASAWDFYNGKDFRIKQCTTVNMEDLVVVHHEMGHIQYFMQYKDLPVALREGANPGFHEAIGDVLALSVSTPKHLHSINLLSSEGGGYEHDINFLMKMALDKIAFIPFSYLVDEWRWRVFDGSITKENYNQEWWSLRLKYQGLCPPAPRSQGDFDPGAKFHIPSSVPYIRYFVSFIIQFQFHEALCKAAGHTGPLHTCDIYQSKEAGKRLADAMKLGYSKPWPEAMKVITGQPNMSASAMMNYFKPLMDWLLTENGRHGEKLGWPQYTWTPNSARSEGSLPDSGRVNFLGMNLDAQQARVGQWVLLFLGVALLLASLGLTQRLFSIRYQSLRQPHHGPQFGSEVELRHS
Description: The inhibition of angiotensin conversion enzyme by the compounds corresponding to general formula (I) is measured, in vitro, with the enzyme isolated from rabbit lungs according to the method by Cushman and Cheung [Biochem.-Pharmacol., 20, 1637, (1971)].
In Table 1 the values of I50 (μM) obtained by using the retroinverted analogues and natural not-modified peptide, which is used as the comparison term, are reported.

[2] = test system: angiotensin conversion enzyme and peptidases; experiment: Stability: resistance of peptides to angiotensin conversion enzyme and to peptidases; format: in vitro ADME; details: after 3 hours of incubation
Text: The stability of peptides of formula (B) and (C) has been verified by determining the resistance of said peptides to the angiotensin conversion enzyme and to peptidases.

[3] = test system: angiotensin conversion enzyme; details: 15 minutes of preincubation with the enzyme; cited from earlier work

Compound	IC50 [1]	resistance towards enzymatic degradation [2]	loss of inhibiting activity [3]
C[C@@H](C(=O)N[C@H](Cc1ccccc1)C(=O)N[C@H](CCCCN)C(=O)N[C@@H]1CCC(=O)N1)C(=O)N1C[C@@H](Sc2ccccc2)C[C@H]1C(=O)O [B, gGlp--Dlys--DPhe--(S)m Ala--Pro--(4-allo--SPh)--OH]	7.5 µM	resistant	–
Glp-Lys-Trp-Ala-Pro ([pGlu]KWAP) [BPP5a]	–	–	complete loss
